Question: With `NS(=O)(=O)c1c(F)c(F)c(S(=O)(=O)CCC(=O)Nc2ccc3c(c2)C(=O)OC32c3ccc(O)cc3Oc3cc(O)ccc32)c(NC2CCCCCCC2)c1F` [GZ19-32, 3-((2-(cyclooctylamino)-3,5,6-trifluoro-4-sulfamoylphenyl)sulfonyl)-N-(3',6'-dihydroxy-3-oxo-3H-spiro[isobenzofuran-1,9'-xanthen]-5-yl)propanamide] as the compound, how does the melting point read?
Answer: 189 to 190 °C
